From article PMC9037111, “Structure-based design, synthesis, and biological evaluation of novel piperine–resveratrol hybrids as antiproliferative agents targeting SIRT-2” (RSC Advances, 2021)
Read-outs that look alike come from different tables or passages of the source.

Assays:
SIRT2 [1] = biological target: T1, SIRT2 (Homo sapiens, UniProt Q8IXJ6); assay: sirtuin deacetylase inhibition assay, % inhibition at […] ([…] at […]); type: biochemical
T1 sequence (Q8IXJ6 2-389): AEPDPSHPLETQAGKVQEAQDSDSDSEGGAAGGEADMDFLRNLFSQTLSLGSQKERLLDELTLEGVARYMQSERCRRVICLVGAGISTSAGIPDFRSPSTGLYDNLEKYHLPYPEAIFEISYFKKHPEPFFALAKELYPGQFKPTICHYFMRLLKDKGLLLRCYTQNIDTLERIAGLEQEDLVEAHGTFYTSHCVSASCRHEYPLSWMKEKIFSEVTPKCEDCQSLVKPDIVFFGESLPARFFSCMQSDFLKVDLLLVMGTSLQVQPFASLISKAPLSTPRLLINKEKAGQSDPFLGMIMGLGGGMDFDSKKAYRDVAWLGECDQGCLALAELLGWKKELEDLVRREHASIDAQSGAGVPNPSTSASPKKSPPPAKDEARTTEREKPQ

BT-549 = assay: cells; set-up: species or system NCI-60 human tumour cell lines; NCI-60 one-dose screen at 10 uM, percent growth inhibition versus untreated control cells; settings: Homo sapiens, BT-549; growth inhibition, one dose; read-out: Growth% inhibition / 5c
Protocol: (§1) The antiproliferative activity of the target compounds 5a–h was screened against a panel of 60 cancer cell lines according to NCI-guidelines at concentration of 10 μM. The results for each compound (Table 1) were recorded as the percent of growth inhibition of treated cells compared to untreated control cells. […] In addition, 5b recorded significant activity against leukemia cancer cell lines K-562 and MOLT-4, Non-small cell lung cancer cell lines NCI-H322M and NCI-H460, Colon cancer cell lines COLO 205, HCT-15 and HCT-116, CNS cancer cell lines SF-295 and SF-539, Melanoma cancer cell lines LOX IMVI and UACC-62, Ovarian cancer cell lines NCI/ADR-RES, OVCAR-3, and OVCAR-4, Renal cancer cell lines CAKI-1, ACHN, and UO-31, and Breast cancer MCF7 cell line with growth inhibition percentage between 80 to 95. […] The methodology of the NCI anticancer screening has been described in detail elsewhere (https://dtp.cancer.gov/).[52]

CCRF-CEM = assay: cells; set-up: species or system NCI-60 human tumour cell lines; NCI-60 one-dose screen at 10 uM, percent growth inhibition versus untreated control cells; settings: Homo sapiens, CCRF-CEM; growth inhibition, one dose; read-out: Growth% inhibition / 5c
Protocol: as §1

K-562 = assay: cells; set-up: species or system NCI-60 human tumour cell lines; NCI-60 one-dose screen at 10 uM, percent growth inhibition versus untreated control cells; settings: Homo sapiens, K562; growth inhibition, one dose; read-out: Growth% inhibition / 5c
Protocol: as §1

MCF7 = assay: cells; set-up: species or system NCI-60 human tumour cell lines; NCI-60 one-dose screen at 10 uM, percent growth inhibition versus untreated control cells; settings: Homo sapiens, MCF7; growth inhibition, one dose; read-out: Growth% inhibition / 5c
Protocol: as §1

NCI-H226 = assay: cells; set-up: species or system NCI-60 human tumour cell lines; NCI-60 one-dose screen at 10 uM, percent growth inhibition versus untreated control cells; settings: Homo sapiens, NCI-H226, growth inhibition, one dose
Protocol: as §1

NCI-H322M = assay: cells; set-up: species or system NCI-60 human tumour cell lines; NCI-60 one-dose screen at 10 uM, percent growth inhibition versus untreated control cells; settings: Homo sapiens, NCI-H322M; growth inhibition, one dose; read-out: Growth% inhibition / 5c
Protocol: as §1

NCI-H522 = assay: cells; set-up: species or system NCI-60 human tumour cell lines; NCI-60 one-dose screen at 10 uM, percent growth inhibition versus untreated control cells; settings: Homo sapiens, NCI-H522; growth inhibition, one dose; read-out: Growth% inhibition / 5c
Protocol: as §1

RPMI-8226 = assay: cells; set-up: species or system NCI-60 human tumour cell lines; NCI-60 one-dose screen at 10 uM, percent growth inhibition versus untreated control cells; settings: Homo sapiens, RPMI-8226; growth inhibition, one dose; read-out: Growth% inhibition / 5c
Protocol: as §1

SF-539 = assay: cells; set-up: species or system NCI-60 human tumour cell lines; NCI-60 one-dose screen at 10 uM, percent growth inhibition versus untreated control cells; settings: Homo sapiens, SF-539; growth inhibition, one dose; read-out: Growth% inhibition / 5c
Protocol: as §1

T-47D = assay: cells; set-up: species or system NCI-60 human tumour cell lines; NCI-60 one-dose screen at 10 uM, percent growth inhibition versus untreated control cells; settings: Homo sapiens, T47D; growth inhibition, one dose; read-out: Growth% inhibition / 5c
Protocol: as §1

UACC-62 = assay: cells; set-up: species or system NCI-60 human tumour cell lines; NCI-60 one-dose screen at 10 uM, percent growth inhibition versus untreated control cells; settings: Homo sapiens, UACC-62, growth inhibition, one dose
Protocol: as §1

UO-31 = assay: cells; set-up: species or system NCI-60 human tumour cell lines; NCI-60 one-dose screen at 10 uM, percent growth inhibition versus untreated control cells; settings: Homo sapiens, UO-31, growth inhibition, one dose
Protocol: as §1

SIRT1 = biological target: T2, SIRT1 (Homo sapiens, UniProt Q96EB6); assay: biochemical; set-up: Sirtuin-TK assay, percent inhibition of human SIRT1 or SIRT2 at 5 and 50 uM
T2 sequence (Q96EB6 2-747): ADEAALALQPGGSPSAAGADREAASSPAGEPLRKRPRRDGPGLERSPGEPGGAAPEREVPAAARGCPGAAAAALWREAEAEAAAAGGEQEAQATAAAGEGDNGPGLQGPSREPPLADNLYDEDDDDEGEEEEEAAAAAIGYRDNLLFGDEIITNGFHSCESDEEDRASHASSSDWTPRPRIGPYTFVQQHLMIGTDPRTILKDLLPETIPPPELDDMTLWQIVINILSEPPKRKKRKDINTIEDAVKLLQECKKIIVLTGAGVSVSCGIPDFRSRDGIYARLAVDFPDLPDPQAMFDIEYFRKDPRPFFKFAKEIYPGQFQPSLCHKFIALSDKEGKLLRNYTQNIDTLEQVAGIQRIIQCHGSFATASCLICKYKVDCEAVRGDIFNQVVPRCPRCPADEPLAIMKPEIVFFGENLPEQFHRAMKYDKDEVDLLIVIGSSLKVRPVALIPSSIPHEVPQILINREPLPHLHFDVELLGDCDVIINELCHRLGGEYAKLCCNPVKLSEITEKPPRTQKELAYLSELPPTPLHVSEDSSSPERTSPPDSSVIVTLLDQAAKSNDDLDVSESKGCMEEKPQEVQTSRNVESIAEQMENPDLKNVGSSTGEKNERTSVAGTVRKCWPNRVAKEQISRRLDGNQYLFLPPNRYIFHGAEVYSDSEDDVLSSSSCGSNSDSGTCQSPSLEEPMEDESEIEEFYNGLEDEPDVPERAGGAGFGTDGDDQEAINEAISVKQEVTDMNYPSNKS
Protocol: (§2) Sirtuin-TK assay was performed to estimate the Sirtuins inhibitory potential of 5a–h (Tables 2 and 3). The results of this test strongly complemented the findings of cancer cell-based assessments. […] Of the 8 compounds evaluated, 3 analogs (5b, 5e and 5h) were more likely to inhibit Sirt2 (>70% inhibition) than Sirt1 (<50% inhibition) at 50 μM. The other compounds were poor inhibitors of both enzymes. […] 4.2.2. Sirtuin inhibitory assay

SIRT2 [2] = biological target: T1, SIRT2; assay: biochemical; set-up: Sirtuin-TK assay, percent inhibition of human SIRT1 or SIRT2 at 5 and 50 uM
Protocol: as §2

SIRT2 [3] = biological target: T1, SIRT2; assay: sirtuin deacetylase inhibition assay, % inhibition at […] ([…] at […]); type: biochemical; remark: listed apart in the source
CAKI-1 = assay: cells; set-up: species or system NCI-60 human tumour cell lines; NCI-60 one-dose screen at 10 uM, percent growth inhibition versus untreated control cells; settings: Homo sapiens, CAKI-1; growth inhibition, one dose; read-out: Growth% inhibition / 5f
Protocol: as §1

HOP-92 = assay: cells; set-up: species or system NCI-60 human tumour cell lines; NCI-60 one-dose screen at 10 uM, percent growth inhibition versus untreated control cells; settings: Homo sapiens, HOP-92; growth inhibition, one dose; read-out: Growth% inhibition / 5f
Protocol: as §1

IGROV1 = assay: cells; set-up: species or system NCI-60 human tumour cell lines; NCI-60 one-dose screen at 10 uM, percent growth inhibition versus untreated control cells; settings: Homo sapiens, IGROV-1, growth inhibition, one dose
Protocol: as §1

SNB-75 = assay: cells; set-up: species or system NCI-60 human tumour cell lines; NCI-60 one-dose screen at 10 uM, percent growth inhibition versus untreated control cells; settings: Homo sapiens, SNB-75, growth inhibition, one dose
Protocol: as §1

SR = assay: cells; set-up: species or system NCI-60 human tumour cell lines; NCI-60 one-dose screen at 10 uM, percent growth inhibition versus untreated control cells; settings: Homo sapiens, SR; growth inhibition, one dose; read-out: Growth% inhibition / 5f
Protocol: as §1

SIRT2 [4] = biological target: T1, SIRT2; assay: sirtuin deacetylase inhibition assay, % inhibition at […] ([…] at […]); type: biochemical; remark: listed apart in the source
LOX IMVI = assay: cells; set-up: species or system NCI-60 human tumour cell lines; NCI-60 one-dose screen at 10 uM, percent growth inhibition versus untreated control cells; settings: Homo sapiens, LOX IMVI; growth inhibition, one dose; read-out: Growth% inhibition / 5g
Protocol: as §1

[5] = read-out: Growth% inhibition / 5c
[6] = read-out: Growth% inhibition / 5f
[7] = read-out: Growth% inhibition / 5g

COc1cc(C=NNC(=O)/C=C/C=C/c2ccc3c(c2)OCO3)ccc1O [5c, (2E,4E)-5-(Benzo[d][1,3]dioxol-5-yl)-N′-((E,Z)-4-hydroxy-3-methoxybenzylidene)penta-2,4-dienehydrazide]
inhibition at 50 µM (SIRT2 [1]): 58 ± 3%
inhibition at 10 µM (BT-549): 13.6%
inhibition at 10 µM (CCRF-CEM): 12.1%
inhibition at 10 µM (K-562): 10.5%
inhibition at 10 µM (MCF7): 20.1%
inhibition at 10 µM (NCI-H226; [5]): 18.3%
inhibition at 10 µM (NCI-H322M): 14.7%
inhibition at 10 µM (NCI-H522): 22%
inhibition at 10 µM (RPMI-8226): 15.3%
inhibition at 10 µM (SF-539): 15.3%
inhibition at 10 µM (T-47D): 19.8%
inhibition at 10 µM (UACC-62; [5]): 11.3%
inhibition at 10 µM (UO-31; [5]): 14%
inhibition at 5 µM (SIRT1): 12 ± 1%
inhibition at 50 µM (SIRT1): 38 ± 3%
inhibition at 5 µM (SIRT2 [2]): 17 ± 3%

O=C(/C=C/C=C/c1ccc2c(c1)OCO2)NN=C(c1ccc(F)cc1)c1ccc(F)cc1 [5f, (2E,4E)-5-(Benzo[d][1,3]dioxol-5-yl)-N′-(bis(4-fluorophenyl)methylene)penta-2,4-dienehydrazide]
inhibition at 50 µM (SIRT2 [3]): 69 ± 3%
inhibition at 10 µM (CAKI-1): 12.8%
inhibition at 10 µM (HOP-92): 13.8%
inhibition at 10 µM (IGROV1; [6]): 12.1%
inhibition at 10 µM (SNB-75; [6]): 16.6%
inhibition at 10 µM (SR): 36.3%
inhibition at 10 µM (UACC-62; [6]): 12.2%
inhibition at 10 µM (UO-31; [6]): 18.3%
inhibition at 5 µM (SIRT1): 14 ± 4%
inhibition at 50 µM (SIRT1): 39 ± 3%
inhibition at 5 µM (SIRT2 [2]): 20 ± 4%

CC(C)(C)c1cc(/C=N/NC(=O)/C=C/C=C/c2ccc3c(c2)OCO3)c(O)c(C(C)(C)C)c1 [5g, (2E,4E)-5-(Benzo[d][1,3]dioxol-5-yl)-N′-((E)-3,5-di-tert-butyl-2-hydroxy-benzylidene)penta-2,4-dienehydrazide]
inhibition at 50 µM (SIRT2 [4]): 55 ± 1%
inhibition at 10 µM (IGROV1; [7]): 14.1%
inhibition at 10 µM (LOX IMVI): 12.1%
inhibition at 10 µM (NCI-H226; [7]): 10.1%
inhibition at 10 µM (SNB-75; [7]): 33%
inhibition at 10 µM (UO-31; [7]): 27.9%
inhibition at 5 µM (SIRT1): 9 ± 2%
inhibition at 50 µM (SIRT1): 35 ± 1%
inhibition at 5 µM (SIRT2 [2]): 19 ± 2%
